# Source: patent publication US9452225B2, “GLP-1 prodrugs” (Novo Nordisk A/S, priority 2012, dated 2016)
# Like-named read-outs stand apart in the source and are kept apart here. Numbered stars: 1 amine (or outer) side, 2 acyl side, 3 side chain; on linkers, the order of the positions; unused ones are H or OH. Square brackets hold non-standard residues; d marks the D form. Side chains are listed from the residue outwards. Peptide text beside a SMILES is read from it. * marks the point of attachment. Decanoyl(10-(4-HOOC-PhO)) = O=C(O)c1ccc(OCCCCCCCCCC(=O)*)cc1; Lac(3-(imidazol-4-yl)) = O=C(O)[C@@H](O)Cc1c[nH]cn1; C18 diacid = O=C(O)CCCCCCCCCCCCCCCCC(=O)*; γGlu = O=C(O)[C@H](CCC(=O)[*:2])N[*:1]; NMeI = CC[C@H](C)[C@H](NC)C(=O)O; NMeV = CN[C@H](C(=O)O)C(C)C; AEEA = NCCOCCOCC(=O)O; Aib = CC(C)(N)C(=O)O; Sar = CNCC(=O)O
# Assays:
# [1] = Prodrug half-life in vitro, buffer method; format: physicochemical
# Protocol: (§1) The purpose of this example is to test the in vitro half-lives (T½) of the GLP-1 prodrugs of the invention, in comparison to conceptually different prodrugs. In what follows two in vitro methods are described, viz. a method conducted in buffer, and a method conducted in plasma.
# Buffer: 25 mM Phosphate (Ionic strength: 154 mM, pH 7.4 at 37° C.)
# NaH2PO4.2H2O (1.95 g, 12.5 mmol) and NaCl (2.61 g, 44.7 mmol) were dissolved in millipore water (approximately 450 mL) and adjusted to pH=7.44 at approximately 20° C. with concentrated NaOH and 1 M NaOH. Water was added to 500.00 mL.
# The compound to be tested was dissolved in buffer to a concentration of 1.0 mg/mL and incubated at 37° C. Samples were taken at adequate intervals and the % parent drug compared to prodrug formed as function of time was evaluated by the UPLC method as referred to in Table 1 by comparing the areas under the curves for the two corresponding peaks. These UPLC methods are described in the general experimental section above (UPLC_A, and UPLC_B).
# (§2) The half life of the prodrug (T½) was calculated from the slope of a linear fit to the curve of ln(% prodrug (Y)) as a function of time (t), as follows: Y=÷αt+k Math. 1 T½=ln(2)/α Math. 2 Plasma Method Buffer: 200 mM Phosphate, pH 7.4 at 37° C.
# The resulting half-lives are set out in Table 1 below. For comparison, the T½ in buffer of native GLP-1(7-37) (His7 variant of SEQ ID NO: 1) was 13 minutes (0.2 hours).
# [2] = Prodrug half-life in vitro, plasma method (minipig heparin plasma); format: in vitro ADME; settings: minipig heparin plasma 800 μL + 200 μL 200 mM phosphate pH 7.4, 37° C.; UPLC_A, or UPLC_B for compounds marked *; read-out: T½ in plasma (converted)
# Protocol: as §1, §2
# NaH2PO4.2H2O (15.61 g, 100 mmol) was dissolved in milliQ water (approximately 450 mL) and adjusted to pH=7.44 at approximately 20° C. with concentrated NaOH (aq) and 1 M NaOH (aq). Water was added to 500.00 mL.
# Serum: Minipig Serum, Heparin-Plasma
# Fresh blood was tapped from minipig into 9 mL LH lithium heparin Vacuette tubes from Greiner bio-one (catalogue number 455084). After cooling on ice it was centrifuged (10 min, 4° C., 3000 rpm/1942G) and the supernatant isolated and kept at −18° C. before use.
# 100 nmol of the compound to be tested was dissolved in 200 μL buffer, added to 800 μL plasma (centrifuged), and incubated at 37° C. Samples (50 μL) were drawn at appropriate intervals into 150 μL absolute EtOH. After a short stirring the sample was centrifuged and the supernatant transferred to the UPLC vial (10 μL injection).
# The % parent drug compared to prodrug formed as a function of time was evaluated by UPLC, and the half-life calculated, both in the same way as described above under the Buffer method.
# [3] = 25 mM phosphate buffer pH 7.4, 37° C., 1.0 mg/mL, UPLC_A, or UPLC_B for compounds marked *, read-out: T½ in buffer (converted)
"half-life at 1 mg/mL ([1]; buffer, pH 7.4)",Compound,"half-life at 1 mg/mL [1, 3]",half-life [2]
,CC[C@H](C)[C@H](NC(=O)[C@H](Cc1ccccc1)NC(=O)[C@H](CCC(=O)O)NC(=O)[C@H](CCCNC(=N)N)NC(=O)[C@@H](NC(=O)[C@H](C)NC(=O)[C@H](CCC(N)=O)NC(=O)[C@H](CCC(=O)O)NC(=O)[C@H](CCC(=O)O)NC(=O)[C@H](CC(C)C)NC(=O)[C@H](Cc1ccc(O)cc1)NC(=O)[C@H](CCCCNC(=O)COCCOCCNC(=O)COCCOCCNC(=O)CC[C@H](NC(=O)CCCCCCCCCOc1ccc(C(=O)O)cc1)C(=O)O)NC(=O)[C@H](CO)NC(=O)[C@@H](NC(=O)[C@H](CC(=O)O)NC(=O)[C@H](CO)NC(=O)[C@@H](NC(=O)[C@H](Cc1ccccc1)NC(=O)[C@@H](NC(=O)CNC(=O)[C@H](CCC(=O)O)NC(=O)[C@H](C)NC(=O)[C@H](Cc1c[nH]cn1)OC(=O)[C@@H](NC(=O)CNC)C(C)C)[C@@H](C)O)[C@@H](C)O)C(C)C)C(C)C)C(=O)N[C@@H](C)C(=O)N[C@@H](CCCCNC(=O)COCCOCCNC(=O)COCCOCCNC(=O)CC[C@H](NC(=O)CCCCCCCCCOc1ccc(C(=O)O)cc1)C(=O)O)C(=O)N[C@@H](CC(C)C)C(=O)N[C@H](C(=O)N[C@@H](CCCNC(=N)N)C(=O)NCC(=O)N[C@@H](CCCNC(=N)N)C(=O)NCC(=O)O)C(C)C [Example 1] (H-[Sar]V[Lac(3-(imidazol-4-yl))]AEGTFTSDVSK([AEEA-AEEA-γGlu-Decanoyl(10-(4-HOOC-PhO))])YLEEQAVREFIAK([AEEA-AEEA-γGlu-Decanoyl(10-(4-HOOC-PhO))])LVRGRG-OH),9.6 h,3.6 h
,CC[C@H](C)[C@H](NC(=O)[C@H](Cc1ccccc1)NC(=O)[C@H](CCC(=O)O)NC(=O)[C@H](CCCNC(=N)N)NC(=O)[C@@H](NC(=O)[C@H](C)NC(=O)[C@H](CCC(N)=O)NC(=O)[C@H](CCC(=O)O)NC(=O)[C@H](CCC(=O)O)NC(=O)[C@H](CC(C)C)NC(=O)[C@H](Cc1ccc(O)cc1)NC(=O)[C@H](CCCCNC(=O)COCCOCCNC(=O)COCCOCCNC(=O)CC[C@H](NC(=O)CCCCCCCCCOc1ccc(C(=O)O)cc1)C(=O)O)NC(=O)[C@H](CO)NC(=O)[C@@H](NC(=O)[C@H](CC(=O)O)NC(=O)[C@H](CO)NC(=O)[C@@H](NC(=O)[C@H](Cc1ccccc1)NC(=O)[C@@H](NC(=O)CNC(=O)[C@H](CCC(=O)O)NC(=O)[C@H](C)NC(=O)[C@H](Cc1c[nH]cn1)OC(=O)[C@@H](NC(=O)[C@@H](NC)C(C)C)C(C)C)[C@@H](C)O)[C@@H](C)O)C(C)C)C(C)C)C(=O)N[C@@H](C)C(=O)N[C@@H](CCCCNC(=O)COCCOCCNC(=O)COCCOCCNC(=O)CC[C@H](NC(=O)CCCCCCCCCOc1ccc(C(=O)O)cc1)C(=O)O)C(=O)N[C@@H](CC(C)C)C(=O)N[C@H](C(=O)N[C@@H](CCCNC(=N)N)C(=O)NCC(=O)N[C@@H](CCCNC(=N)N)C(=O)NCC(=O)O)C(C)C [Example 2] (H-[NMeV]V[Lac(3-(imidazol-4-yl))]AEGTFTSDVSK([AEEA-AEEA-γGlu-Decanoyl(10-(4-HOOC-PhO))])YLEEQAVREFIAK([AEEA-AEEA-γGlu-Decanoyl(10-(4-HOOC-PhO))])LVRGRG-OH),42.5 h,27.5 h
,CC[C@H](C)[C@H](NC(=O)[C@H](Cc1ccccc1)NC(=O)[C@H](CCC(=O)O)NC(=O)[C@H](CCCNC(=N)N)NC(=O)[C@@H](NC(=O)[C@H](C)NC(=O)[C@H](CCC(N)=O)NC(=O)[C@H](CCC(=O)O)NC(=O)[C@H](CCC(=O)O)NC(=O)[C@H](CC(C)C)NC(=O)[C@H](Cc1ccc(O)cc1)NC(=O)[C@H](CCCCNC(=O)COCCOCCNC(=O)COCCOCCNC(=O)CC[C@H](NC(=O)CCCCCCCCCOc1ccc(C(=O)O)cc1)C(=O)O)NC(=O)[C@H](CO)NC(=O)[C@@H](NC(=O)[C@H](CC(=O)O)NC(=O)[C@H](CO)NC(=O)[C@@H](NC(=O)[C@H](Cc1ccccc1)NC(=O)[C@@H](NC(=O)CNC(=O)[C@H](CCC(=O)O)NC(=O)[C@H](C)NC(=O)[C@H](Cc1c[nH]cn1)OC(=O)[C@@H](NC(=O)[C@@H](N)C(C)C)C(C)C)[C@@H](C)O)[C@@H](C)O)C(C)C)C(C)C)C(=O)N[C@@H](C)C(=O)N[C@@H](CCCCNC(=O)COCCOCCNC(=O)COCCOCCNC(=O)CC[C@H](NC(=O)CCCCCCCCCOc1ccc(C(=O)O)cc1)C(=O)O)C(=O)N[C@@H](CC(C)C)C(=O)N[C@H](C(=O)N[C@@H](CCCNC(=N)N)C(=O)NCC(=O)N[C@@H](CCCNC(=N)N)C(=O)NCC(=O)O)C(C)C [Example 2a] (H-VV[Lac(3-(imidazol-4-yl))]AEGTFTSDVSK([AEEA-AEEA-γGlu-Decanoyl(10-(4-HOOC-PhO))])YLEEQAVREFIAK([AEEA-AEEA-γGlu-Decanoyl(10-(4-HOOC-PhO))])LVRGRG-OH),10.5 h,4.6 h
45.6 h,CC[C@H](C)[C@H](NC)C(=O)N[C@H](C(=O)O[C@@H](Cc1c[nH]cn1)C(=O)NC(C)(C)C(=O)N[C@@H](CCC(=O)O)C(=O)NCC(=O)N[C@H](C(=O)N[C@@H](Cc1ccccc1)C(=O)N[C@H](C(=O)N[C@@H](CO)C(=O)N[C@@H](CC(=O)O)C(=O)N[C@H](C(=O)N[C@@H](CO)C(=O)N[C@@H](CO)C(=O)N[C@@H](Cc1ccc(O)cc1)C(=O)N[C@@H](CC(C)C)C(=O)N[C@@H](CCC(=O)O)C(=O)N[C@@H](CCC(=O)O)C(=O)N[C@@H](CCC(N)=O)C(=O)N[C@@H](C)C(=O)N[C@@H](C)C(=O)N[C@@H](CCCNC(=N)N)C(=O)N[C@@H](CCCCNC(=O)COCCOCCNC(=O)COCCOCCNC(=O)CC[C@H](NC(=O)CCCCCCCCCCCCCCCCC(=O)O)C(=O)O)C(=O)N[C@@H](Cc1ccccc1)C(=O)N[C@H](C(=O)N[C@@H](C)C(=O)N[C@@H](Cc1c[nH]c2ccccc12)C(=O)N[C@@H](CC(C)C)C(=O)N[C@H](C(=O)N[C@@H](CCCNC(=N)N)C(=O)NCC(=O)N[C@@H](CCCNC(=N)N)C(=O)NCC(=O)O)C(C)C)[C@@H](C)CC)C(C)C)[C@@H](C)O)[C@@H](C)O)C(C)C [Example 6] (H-[NMeI]V[Lac(3-(imidazol-4-yl))][Aib]EGTFTSDVSSYLEEQAARK([AEEA-AEEA-γGlu-C18 diacid])FIAWLVRGRG-OH),,
11 h,CC[C@H](C)[C@H](N)C(=O)N[C@H](C(=O)O[C@@H](Cc1c[nH]cn1)C(=O)NC(C)(C)C(=O)N[C@@H](CCC(=O)O)C(=O)NCC(=O)N[C@H](C(=O)N[C@@H](Cc1ccccc1)C(=O)N[C@H](C(=O)N[C@@H](CO)C(=O)N[C@@H](CC(=O)O)C(=O)N[C@H](C(=O)N[C@@H](CO)C(=O)N[C@@H](CO)C(=O)N[C@@H](Cc1ccc(O)cc1)C(=O)N[C@@H](CC(C)C)C(=O)N[C@@H](CCC(=O)O)C(=O)N[C@@H](CCC(=O)O)C(=O)N[C@@H](CCC(N)=O)C(=O)N[C@@H](C)C(=O)N[C@@H](C)C(=O)N[C@@H](CCCNC(=N)N)C(=O)N[C@@H](CCCCNC(=O)COCCOCCNC(=O)COCCOCCNC(=O)CC[C@H](NC(=O)CCCCCCCCCCCCCCCCC(=O)O)C(=O)O)C(=O)N[C@@H](Cc1ccccc1)C(=O)N[C@H](C(=O)N[C@@H](C)C(=O)N[C@@H](Cc1c[nH]c2ccccc12)C(=O)N[C@@H](CC(C)C)C(=O)N[C@H](C(=O)N[C@@H](CCCNC(=N)N)C(=O)NCC(=O)N[C@@H](CCCNC(=N)N)C(=O)NCC(=O)O)C(C)C)[C@@H](C)CC)C(C)C)[C@@H](C)O)[C@@H](C)O)C(C)C [Example 6a] (H-IV[Lac(3-(imidazol-4-yl))][Aib]EGTFTSDVSSYLEEQAARK([AEEA-AEEA-γGlu-C18 diacid])FIAWLVRGRG-OH),,
